What was measured:
mice, 85 weeks of age = assay: Late-life fisetin diet in aged mice: lifespan, tissue function, histopathology; type: in vivo, mouse; conditions: diet containing 500 ppm fisetin from 85 weeks of age
Procedure: At 85-weeks of age (>20 mth), male and female mice were administered a diet containing 500 ppm (500 mg/kg) fisetin or fed a control diet with no drug. n=8-9 mice per group. In the treatment group, median lifespan was increased 17% and maximum lifespan increased 12%. Log rank (Mantel-Cox) test. […] Levels of MCP-1 were measured in the serum of these mice by ELISA. n=5 mice per group. One-way ANOVA with Tukey's multiple comparison test. Values represented as the mean SEM, ***p<0.001, ****p<0.0001. Therefore, circulating levels of MCP-1 correlate with drug-induced improvements in health and lifespan (FIG. 12).

C57BL/6J mice = assay: Composite lesion scores (geropathology grading, histology) in old mice on rapamycin diet; type: in vivo, mouse; conditions: two year-old C57BL/6J mice; rapamycin diet 14 ppm females / 42 ppm males for two months; average
Text: Two year-old C57BL/6J mice were fed a diet containing rapamycin (14 ppm for females or 42 ppm for males) or a control diet for two months. […] In addition, rapamycin attenuated composite lesion scores in kidneys (FIG. 7), liver, and lungs of these mice by an average of 40, 41, and 29 percent, respectively.
Two year old C57BL/6J mice were obtained from the NIA Rodent Colony and treated with encapsulated rapamycin (Rapamycin Holdings, San Antonio Tex.) at 14 ppm for females and 42 ppm for males, or control (encapsulated only) diet for 8 weeks. Mice were sacrificed at 26 months and serum collected preceding necropsy. Ercc1^−/Δ mice were treated with Dasatinib and Quercetin as described elsewhere (see, e.g., Zhu et al., 2015 Aging cell. 14(4):644-658). Briefly, Ercc1^−/Δ mice were treated weekly with a combination of Dasatinib (5 mg/kg) and Quercetin (50 mg/kg) starting at 4-6 weeks of age. Therapeutics were administered in 10% PEG400 by oral gavage. Litters with multiple Ercc1^−/Δ mice were used to enable comparison of sibling pairs that were treated with therapeutic vs vehicle only. Mice (n=5-6 per group) were sacrificed at 16 weeks and serum collected by cardiac puncture.
Mouse tissues were collected at necropsy and placed in 10% buffered formalin for 48 hours, transferred to 70% alcohol, and subsequently processed into paraffin blocks for sectioning and hematoxylin and eosin staining. Histology slides were validated for age-related lesions by a veterinary pathologist and scored for lesion severity to create a composite lesion score for age-related renal pathology in each animal (see, e.g., Ladiges 2016 Pathobiol Aging Age Relat Dis. 6:31478).

[1] = male and female mice, vs control diet

Row | Structure (SMILES) | age-related histopathology (mice, 85 weeks of age) | tissue function (mice, 85 weeks of age) | increase in maximum lifespan (mice, 85 weeks of age; [1]) [%] | increase in median lifespan (mice, 85 weeks of age; [1]) [%] | attenuation of composite lesion score, kidneys (C57BL/6J mice) [%] | attenuation of composite lesion score, liver (C57BL/6J mice) [%] | attenuation of composite lesion score, lungs (C57BL/6J mice) [%]
1 | O=c1c(O)c(-c2ccc(O)c(O)c2)oc2cc(O)ccc12 [fisetin] | decreased in multiple organs | improved | 12 | 17 |  |  | 
2 | CO[C@H]1C[C@@H]2CC[C@@H](C)[C@@](O)(O2)C(=O)C(=O)N2CCCC[C@H]2C(=O)O[C@H]([C@H](C)C[C@@H]2CC[C@@H](O)[C@H](OC)C2)CC(=O)[C@H](C)/C=C(\C)[C@@H](O)[C@@H](OC)C(=O)[C@H](C)C[C@H](C)/C=C/C=C/C=C/1C [rapamycin] |  |  |  |  | 40 | 41 | 29

Source: US20200338039A1, “METHODS AND MATERIALS FOR ASSESSING BIOLOGICAL AGE AND SLOWING THE PROGRESS OF EXCESSIVE BIOLOGICAL AGING” (The Scripps Research Institute, priority 2017, published 2020)
